The assay concerns the target T1, human DP2 receptor (Homo sapiens, UniProt Q9Y5Y4).
T1 construct: expressed in transfected cells
T1 sequence (Q9Y5Y4 1-395): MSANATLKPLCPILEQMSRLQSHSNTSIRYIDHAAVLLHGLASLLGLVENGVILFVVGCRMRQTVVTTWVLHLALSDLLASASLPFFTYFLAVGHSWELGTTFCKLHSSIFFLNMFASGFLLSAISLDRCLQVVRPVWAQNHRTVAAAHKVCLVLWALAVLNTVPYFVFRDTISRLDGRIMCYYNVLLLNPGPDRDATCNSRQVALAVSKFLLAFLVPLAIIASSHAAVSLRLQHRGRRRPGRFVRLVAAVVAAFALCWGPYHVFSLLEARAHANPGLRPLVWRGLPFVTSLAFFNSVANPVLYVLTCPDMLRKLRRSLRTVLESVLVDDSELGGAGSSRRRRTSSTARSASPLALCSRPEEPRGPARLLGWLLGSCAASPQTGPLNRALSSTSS
In words: DP2/CRTH2 binding assay (radioligand binding with [3H]PGD2). The following applies: [3H]PGD2 binding, membranes of HEK293 cells expressing recombinant human DP2; read-out: hDP2. Here is the method:
The ability of a compound to bind to the human DP2 receptor is assessed via a radioligand binding assay using [^3H]PGD2. HEK293 cells stably expressing recombinant human DP2 are resuspended in 10 mM Hepes, 7.4 containing 1 mM DTT, lysed and centrifuged at 75,000×g to pellet the membranes. The membranes are resuspended in 10 mM Hepes, 7.4 containing 1 mM DTT and 10% glycerol to approximately 5 mg protein/ml. Membranes (2-10 μg protein/well) are incubated in 96-well plates with 1 nM [^3H]PGD2 and test compound in Assay Buffer (50 mM Hepes, 10 mM MnCl2, 1 mM EDTA, plus or minus 0.2% human serum albumin, pH 7.4) for 60 minutes at room temperature. The reactions are terminated by rapid filtration through Whatman GF/C glass fibre filter plates. The filter plates were pre-soaked in 0.33% polythylenimine for 30 minutes at room temperature then washed in Wash Buffer (50 mM Hepes, 0.5 M NaCl pH 7.4) prior to harvesting. After harvesting, the filter plates are washed 3 times with 1 ml cold Wash Buffer then dried. Scintillant is then added to the plates and the radioactivity retained on the filters is determined on a Packard TopCount (Perkin Elmer). Specific binding is determined as total radioactive binding minus non-specific binding in the presence of 10 μM PGD2. IC50s were determined using GraphPad prism analysis of drug titration curves.
As for `CCN(Cc1cc(SC(C)(C)C)ccc1-c1cncc(CC(=O)O)c1)C(=O)C1CC1` [Compound 22, (5-{4-tert-Butylsulfanyl-2-[(N-cyclopropanecarbonyl-N-ethyl-amino)-methyl]-phenyl}-pyridin-3-yl)-acetic acid], the IC50 was less than 300 nM.
The result for `N#Cc1ccc(-c2cncc(CC(=O)O)c2)c(CN(Cc2ccccc2)C(=O)C2CC2)c1` [Compound 3, (5-{2-[(N-Benzyl-N-cyclopropanecarbonyl-amino)-methyl]-4-cyano-phenyl}-pyridin-3-yl)-acetic acid] reads less than 300 nM.
`CCOCC(=O)N(CC)Cc1cc(C(F)(F)F)ccc1-c1cncc(CC(=O)O)c1` [Compound 35, [5-(2-{[N-(2-Ethoxy-acetyl)-N-ethyl-amino]-methyl}-4-trifluoromethyl-phenyl)-pyridin-3-yl]-acetic acid]: the IC50 is 300 to 1000 nM.
As to `O=C(O)Cc1cncc(-c2ccc(C(=O)NCc3ccccc3)cc2CN(Cc2ccccc2)C(=O)C2CC2)c1` [Compound 5, (5-{4-Benzylcarbamoyl-2-[(N-benzyl-N-cyclopropanecarbonyl-amino)-methyl]-phenyl}-pyridin-3-yl)-acetic acid], the IC50 is less than 300 nM.
The result for `CCN(Cc1cc(C(F)(F)F)ccc1-c1cncc(CC(=O)O)c1)C(=O)c1cc(OC)nc(OC)n1` [Compound 30] reads more than 1000 nM; that for `CCN(Cc1cc(C(F)(F)F)ccc1-c1cnc(Cl)c(CC(=O)O)c1)C(=O)C1CC1` [Compound 9, (2-Chloro-5-{2-[(N-cyclopropanecarbonyl-N-ethyl-amino)-methyl]-4-trifluoromethyl-phenyl}-pyridin-3-yl)-acetic acid], 300 to 1000 nM; that for `CCN(Cc1cc(C(F)(F)F)ccc1-c1cncc(CC(=O)O)c1)C(=O)c1cnccn1` [Compound 29, [5-(2-{[N-Ethyl-N-(pyrazine-2-carbonyl)-amino]-methyl}-4-trifluoromethyl-phenyl)-pyridin-3-yl]-acetic acid], 300 to 1000 nM.
The result for `CCN(Cc1cc(C(F)(F)F)ccc1-c1cncc(CC(=O)O)c1)C(=O)Cc1ccccc1` [Compound 16, (5-{2-[(N-Ethyl-N-phenylacetyl-amino)-methyl]-4-trifluoromethyl-phenyl}-pyridin-3-yl)-acetic acid] reads less than 300 nM.
As for `CCN(Cc1cc(C(=O)O)ccc1-c1cncc(CC(=O)O)c1)C(=O)OCc1ccccc1` [Compound 1, 3-[(N-Benzyloxycarbonyl-N-ethyl-amino)-methyl]-4-(5-carboxymethyl-pyridin-3-yl)-benzoic acid], the IC50 is less than 300 nM.
In the case of `O=C(O)Cc1cncc(-c2ccc(C(F)(F)F)cc2CN(Cc2ccccc2)C(=O)C2CC2)c1` [Compound 17, (5-{2-[(N-Benzyl-N-cyclopropanecarbonyl-amino)-methyl]-4-trifluoromethyl-phenyl}-pyridin-3-yl)-acetic acid], the IC50 was less than 300 nM.
The result for `CCN(Cc1cc(C(F)(F)F)ccc1-c1cncc(CC(=O)O)c1)C(=O)NCc1ccccc1` [Compound 14, {5-[2-(3-Benzyl-1-ethyl-ureidomethyl)-4-trifluoromethyl-phenyl]-pyridin-3-yl}-acetic acid] reads less than 300 nM; that for `CCOC(=O)N(CC)Cc1cc(C(F)(F)F)ccc1-c1cc(CC(=O)O)cnc1OC` [Compound 43, (5-{2-[(N-Ethoxycarbonyl-N-ethyl-amino)-methyl]-4-trifluoromethyl-phenyl}-6-methoxy-pyridin-3-yl)-acetic acid], less than 300 nM.
Consider `CCN(Cc1cc(S)ccc1-c1cncc(CC(=O)O)c1)C(=O)C1CC1` [Compound 24, (5-{2-[(N-Cyclopropanecarbonyl-N-ethyl-amino)-methyl]-4-mercapto-phenyl}-pyridin-3-yl)-acetic acid], for which the IC50 is less than 300 nM.
As to `CCOc1cc(OCC)nc(CC(=O)N(CC)Cc2cc(C(F)(F)F)ccc2-c2cncc(CC(=O)O)c2)n1` [Compound 32, {5-[2-({N-[2-(4,6-Diethoxy-pyrimidin-2-yl)-acetyl]-N-ethyl-amino}-methyl)-4-trifluoromethyl-phenyl]-pyridin-3-yl}-acetic acid], the IC50 is less than 300 nM.
In the case of `CCN(Cc1cc(C(F)(F)F)ccc1-c1cncc(CC(=O)O)c1)C(=O)Cc1ccc(C)nc1` [Compound 37, {5-[2-({N-Ethyl-N-[2-(6-methyl-pyridin-3-yl)-acetyl]-amino}-methyl)-4-trifluoromethyl-phenyl]-pyridin-3-yl}-acetic acid], the IC50 was less than 300 nM.
As to `CCN(Cc1cc(C(F)(F)F)ccc1-c1cncc(CC(=O)O)c1)C(=O)Cc1ccc(Cl)nc1` [Compound 31, {5-[2-({N-[2-(6-Chloro-pyridin-3-yl)-acetyl]-N-ethyl-amino}-methyl)-4-trifluoromethyl-phenyl]-pyridin-3-yl}-acetic acid], the IC50 is less than 300 nM.
The result for `O=C(O)CCn1c2c(c3ccccc31)C[C@H](NS(=O)(=O)c1ccc(F)cc1)CC2` [Ramatroban, reference compound] reads 300 to 1000 nM.
Turning to `CCN(Cc1cc(C(F)(F)F)ccc1-c1cc(CC(=O)O)cnc1OC)C(=O)C1CC1` [Compound 10, (5-{2-[(N-Cyclopropanecarbonyl-N-ethyl-amino)-methyl]-4-trifluoromethyl-phenyl}-6-methoxy-pyridin-3-yl)-acetic acid], the IC50 was less than 300 nM.
Under `O=C(O)Cc1cncc(-c2ccc(-c3nn[nH]n3)cc2CN(Cc2ccccc2)C(=O)C2CC2)c1` [Compound 4, {5-[2-[(N-Benzyl-N-cyclopropanecarbonyl-amino)-methyl]-4-(2H-tetrazol-5-yl)-phenyl]-pyridin-3-yl}-acetic acid] stands less than 300 nM; under `CCN(Cc1cc(C(F)(F)F)ccc1-c1cncc(CC(=O)O)c1)C(=O)OC(C)(C)C` [Compound 13, (5-{2-[(N-tert-Butoxycarbonyl-N-ethyl-amino)-methyl]-4-trifluoromethyl-phenyl}-pyridin-3-yl)-acetic acid], less than 300 nM.

Values taken from patent publication US8049015B2 (Panmira Pharmaceuticals, LLC, priority 2008, dated 2011).
